We go through 3 compounds from publication PMC11968843, “Sulphostin-inspired N-phosphonopiperidones as selective covalent DPP8 and DPP9 inhibitors” (Nature Communications, 2025).

The target of data set [1] is T1, HEK293 cell lysates (proteome-wide targets of probe 9) (Homo sapiens, UniProt P05388).
T1 construct: endogenous in cells; host or cells: HEK293 cell lysate
As to the kind of experiment: Competitive ABPP / direct target identification with alkyne probe 9 in HEK293 cell lysates. Particulars: protein RPLP0;RPLP0P6. It is filed as binding, H. sapiens.

The target of data set [2] is T2, HEK293 cell lysates (proteome-wide targets of probe 9) (Homo sapiens, UniProt P0DMV8).
T2 construct: endogenous in cells; host or cells: HEK293 cell lysate
Described as above. In kind it is binding, H. sapiens. Conditions: protein HSPA1A;HSPA1B.

For data set [3], the system named is HeLa wild-type cells. As to the kind of experiment: Cell viability assay (MTT), inhibitor alone. In kind it is cell-based. Conditions: for Cell viability normalized to mock treated cells + 0 µM MMC: individual replicate values (Supplementary Figure 11a); for 95% confidence interval of difference: Figure 5d S11a, Ctrl. [-MMC] vs. compound [-MMC], Tukey's multiple comparisons test. The method, then:
(§1) HeLa wild-type (HeLa Flp-In T-REx WT, kind gift from Prof. Matthias Hentze) and HeLa DPP9^KO cells (prepared in-house) were cultured in DMEM (ThermoFisher, USA) supplemented with 10% FBS (PAN Biotech, Germany), 2 mM L-Glutamin (ThermoFisher, USA) and 1% Penicillin/Streptomycin (100 U mL^−1 Penicillin and 100 µg mL^−1 Streptomycin, ThermoFisher, USA). Cells were seeded in 96-well flat-bottom cell culture plates (Greiner, Germany) at a concentration of 5 × 10^3 cells per well (37 °C and 5% CO2). The indicated concentration of Mitomycin C (MMC, Merck) was added to the cells 24 h after seeding, together with 10 µM of the indicated inhibitor. The inhibitors were refreshed every 24 h. Control cells were treated with DMSO.
(§2) Cell viability was measured 72 hours after the MMC treatment. For this, the medium was removed and replaced with phenol-red free DMEM (ThermoFisher, USA) containing 0.5 mg mL^−1 MTT (Sigma Aldrich, USA). Cells were incubated for 30 min at 37 °C, 5% CO2. Subsequently, the medium was removed and replaced by DMSO. The plates were shaken on an orbital shaker for 20 min before measuring the MTT signal on a CARIOstar Plus microplate reader (BMT labtech, Germany). Each experiment was performed three times, each in triplicates.

Data set [4] deals with HeLa wild-type cells. Put plainly: Cell viability assay (MTT), co-treatment with Mitomycin C. In kind it is cell-based. Particulars: for cell viability normalized for each condition seperately to corresponsing [-MMC +inhibitor] control: +MMC co-treatment, individual replicate values (Supplementary Figure 11b). The method, then: as §1, §2
Data set [5] addresses T3, DPP9-BRCA2 interaction in HeLa wild-type cells (Homo sapiens, UniProt Q86TI2).
T3 construct: endogenous in cells; host or cells: HeLa wild-type (HeLa Flp-In T-REx WT)
As to the kind of experiment: Proximity ligation assay (PLA) of MMC-induced DPP9-BRCA2 interaction. Conditions: for 95% confidence interval of difference: compound vs. +Ctrl., Unpaired two-sided t-test. It is filed as cell-based. Here is the method:
HeLa wild-type cells were cultured as described above. Cells were seeded on coverslips in 24‐well plates (Greiner, Germany) at a concentration of 2 × 10^4 cells per well (37 °C and 5% CO2). To induce a DPP9-BRCA2 interaction, 300 nM MMC was added to the cells 8 h after seeding and for a total incubation time of 24 h. Indicated Inhibitors (10 µM) were added 1 h prior to cell fixation. Cells were fixed with 4% formaldehyde in PBS for 10 min and permeabilized with 0.2% Triton‐X‐100 in PBS for 5 min. The proximity ligation assay (PLA) was performed using the Duolink in situ PLA Kit (Sigma Aldrich, USA). Briefly, cells were washed with PBS and blocked with Duolink Blocking solution for 60 min at 37 °C. […] Antibody control coverslips were treated with only one primary antibody to estimate background staining in each experiment. Coverslips were washed and treated with PLA reagents according to the manufacturers protocol. Cells were mounted in DAKO with DAPI fluorescent mounting medium and analyzed using an LSM 710 confocal microscope, 63x NA 1.4 oil immersion objective (Zeiss, Germany). Images were processed using Zen black v2.3 (Zeiss, Germany) and subsequently analyzed using the Duolink ImageTool Setup 1.0.1.2 (Sigma Aldrich, USA).

The mark [6] stands for this setting: Figure 5d S11a, + Ctrl. [+MMC] vs. compound [+MMC], Tukey's multiple comparisons test.
[7] abbreviates: Figure S11b, Ctrl. vs. compound, Uncorrected Fisher's LSD.

SMILES strings stand for the structures. “And” between values parts separate entries of the source, which are not always exact repeats. Equal values may be shown once. “Also recorded” adds a separate entry of the source.

T3 sequence (Q86TI2 whole entry): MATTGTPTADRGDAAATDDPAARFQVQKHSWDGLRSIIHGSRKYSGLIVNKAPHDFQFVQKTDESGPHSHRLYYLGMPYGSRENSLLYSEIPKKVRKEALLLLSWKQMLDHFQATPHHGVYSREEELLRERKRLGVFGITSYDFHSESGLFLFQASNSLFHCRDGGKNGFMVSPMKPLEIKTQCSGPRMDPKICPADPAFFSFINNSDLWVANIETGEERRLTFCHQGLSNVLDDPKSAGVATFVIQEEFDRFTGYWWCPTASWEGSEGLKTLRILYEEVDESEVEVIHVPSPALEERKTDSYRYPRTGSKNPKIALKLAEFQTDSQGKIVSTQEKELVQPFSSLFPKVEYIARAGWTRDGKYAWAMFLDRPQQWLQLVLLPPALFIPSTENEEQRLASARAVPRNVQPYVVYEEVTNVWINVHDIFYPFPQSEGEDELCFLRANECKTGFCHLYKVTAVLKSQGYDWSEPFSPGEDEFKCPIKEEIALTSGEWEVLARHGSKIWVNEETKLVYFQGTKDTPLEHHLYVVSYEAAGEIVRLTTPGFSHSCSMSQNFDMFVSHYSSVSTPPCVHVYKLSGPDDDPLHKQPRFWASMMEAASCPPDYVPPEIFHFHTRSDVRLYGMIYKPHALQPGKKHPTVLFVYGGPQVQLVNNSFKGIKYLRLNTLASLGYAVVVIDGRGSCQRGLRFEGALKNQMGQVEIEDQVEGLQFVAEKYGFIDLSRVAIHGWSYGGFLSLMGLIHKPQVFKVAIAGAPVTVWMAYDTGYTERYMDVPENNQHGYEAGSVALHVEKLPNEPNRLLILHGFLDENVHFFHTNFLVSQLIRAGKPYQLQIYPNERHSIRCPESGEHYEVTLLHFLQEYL
T2 sequence (P0DMV8 whole entry): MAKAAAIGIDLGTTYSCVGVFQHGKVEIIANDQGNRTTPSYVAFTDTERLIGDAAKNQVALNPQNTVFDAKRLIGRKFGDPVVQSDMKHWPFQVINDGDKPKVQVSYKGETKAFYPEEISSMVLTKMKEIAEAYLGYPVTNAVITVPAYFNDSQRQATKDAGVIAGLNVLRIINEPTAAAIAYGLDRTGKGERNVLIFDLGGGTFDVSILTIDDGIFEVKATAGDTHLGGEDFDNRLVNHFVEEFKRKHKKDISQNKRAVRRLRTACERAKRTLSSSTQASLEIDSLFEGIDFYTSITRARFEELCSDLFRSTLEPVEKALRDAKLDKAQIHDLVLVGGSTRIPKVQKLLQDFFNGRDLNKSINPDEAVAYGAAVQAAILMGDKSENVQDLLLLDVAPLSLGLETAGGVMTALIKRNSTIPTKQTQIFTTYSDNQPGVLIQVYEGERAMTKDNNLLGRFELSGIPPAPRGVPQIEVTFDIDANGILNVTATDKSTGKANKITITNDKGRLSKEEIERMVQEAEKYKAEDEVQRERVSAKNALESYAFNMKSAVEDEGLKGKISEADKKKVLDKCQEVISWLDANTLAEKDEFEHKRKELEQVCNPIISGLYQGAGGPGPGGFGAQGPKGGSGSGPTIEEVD

Turning to `C#CCCCP(=O)(OCC)N1CCCC(N)C1=O.O=C(O)C(F)(F)F` (mixture of isomers) [Compound 9], the “Log2-fold change (9/DMSO)” value in data set [1] is listed as 0.9479; in data set [2], 0.0845.

With `CCCCCCP(=O)(OCC)N1CCC[C@H](N)C1=O` (stereo partly shown) [Compound 5], in data set [3], the “Cell viability normalized to mock treated cells + 0 µM MMC” value was 95.9127% and 99.5028% and 95.7865% and 114.42% and 79.6662% and 94.1915% and 91.8119% and 83.2505% and 91.8375%. Also, the figures for the “95% confidence interval of difference” value in data set [3], in data set [4] (setting [6]) and in data set [4] (setting [7]) were -2,823 to 18,38, -9,959 to 11,24 and -11,45 to 2,173, respectively. The “cell viability normalized for each condition seperately to corresponsing [-MMC +inhibitor] control” value in data set [4] is 58.346% and 64.1242% and 71.7486% and 57.5023% and 82.3895% and 73.7368% and 74.46% and 78.7587% and 61.0935%.

For `CCCCCc1ccc(SCCP(=O)(OCC)N2CCC[C@H](N)C2=O)cc1.O=C(O)C(F)(F)F` (stereo partly shown) [Compound 16], the “95% confidence interval of difference” value in data set [5] (Figure 5c) is -75,96 to -55,68; in data set [5] (Figure S10a replicate 1) it was -67,48 to -40,38; in data set [5] (Figure S10a replicate 2) it was -89,07 to -45,54; in data set [5] (Figure S10a replicate 3), -92,21 to -59,25; in data set [3] it was -4,629 to 16,57; in data set [4] (setting [6]), 1,107 to 22,31. Also, the “95% confidence interval of difference” value in data set [4] (setting [7]) is reported as 1,930 to 15,55. For the same compound, in data set [5] (HeLa wild-type, 300 nM MMC 24 h, 10 µM inhibitor), the “effect on MMC-induced DPP9-BRCA2 PLA events” value is given as “significant reduction in the number of MMC-induced PLA events”. In addition, in data set [3], the “Cell viability normalized to mock treated cells + 0 µM MMC” value was 97.3681% and 98.2989% and 98.3512% and 104.946% and 88.3417% and 98.5541% and 95.4309% and 92.3469% and 88.9994%. Moreover, the “effect on cell viability without MMC” value in data set [3] (HeLa wild-type, 10 µM, 72 h) is on record as “not toxic to cells; also recorded: did not show cytotoxic effects”. The “cell viability normalized for each condition seperately to corresponsing [-MMC +inhibitor] control” value in data set [4] is 56.5022% and 55.2183% and 55.934% and 53.6658% and 54.9944% and 49.1952% and 50.7013% and 59.4169% and 66.1488%. Moreover, the “effect on cell viability / sensitivity to MMC” value in data set [4] (HeLa wild-type, 1 µM MMC + 10 µM inhibitor, 72 h) is “increase in the sensitivity of cells to genotoxic stress; also recorded: clearly increased the sensitivity of cells to MMC”.
